Experimental findings from publication PMC6923765, “Structural Design, Synthesis, and Preliminary Biological Evaluation of Novel Dihomooxacalix[4]arene-Based Anti-tumor Agents” (Frontiers in Chemistry, 2019) are described below.

Data set [1] has as its system A549 cells (human lung carcinoma cells). Briefly: SRB cytotoxicity assay, A549 cells. In kind it is cell-based. As to conditions: 72 h, SRB; for IC50: read-out: IC50 (μM) A549. As to the method: (§1) A549 cells (human lung carcinoma cells), MCF-7 cells (human breast cancer cells), HeLa cells (human cervical cancer cells), HepG2 cells (human hepatocellular carcinoma cells), and HUVEC cells (human umbilical vein endothelial cells) were kindly provided by WeiFang Caleb Pharmaceuticals, Inc. A549 cells were cultured in Ham's F12K medium containing 10% fetal bovine serum, 2 mM L-glutamine, and 1.5 g/L sodium bicarbonate; MCF-7 cells were cultured on cell culture flask using RPMI 1640 medium with 2 mM L-glutamine adjusted to contain 1.5 g/L sodium bicarbonate, 4.5 g/L glucose, 10 mM HEPES, 1.0 mM sodium pyruvate, and 10% fetal bovine serum. Hela cells were cultured on Cell culture flask using 2 mM L-glutamine adjusted to contain 1.5 g/L sodium bicarbonate, 4.5 g/L glucose, 10 mM HEPES, and 1.0 mM sodium pyruvate in RPMI 1640 medium supplemented with 0.5 mg/ml G418 and 10% fetal bovine serum. HepG2 cells were cultured in minimum essential medium (Eagle) with 2 mM L-glutamine, Earle's BSS, 1.5 g/L sodium bicarbonate, 0.1 mM non-essential amino acids, 1.0 mM sodium pyruvate, and 10% fetal bovine serum. HUVEC cells were cultured in M199 medium containing 2 mM L-glutamine adjusted to contain 1.5 g/L sodium bicarbonate, 4.5 g/L glucose, 10 mM HEPES, 1.0 mM sodium pyruvate, ECGS, and 10% fetal bovine serum. All cells were cultured at 37°C in 5% CO2.
(§2) The cell proliferation of adherent cells was determined by sulforhodamine B assay (SRB) (Quan et al., [2009]; Li et al., [2017]). All cells were cultured in culture medium containing 10% fetal bovine serum and have been in the logarithmic growth phase. All cell types were seeded in a 96-well culture plate at a concentration of 1–5 × 10^4 cells per well at 37°C in a 5% CO2 incubator for 24 h. The cells were then exposed to seven drug concentrations of dihomooxacalix[4]arene derivatives for 72 h with each concentration located in three wells. Then, the cells were fixed with trichloroacetic acid (TCA). After washing, SRB working solution was added to the cells to […]. SRB combined with protein was dissolved in Tris base. OD values were measured for each well with a SPECTRA max 190 Cell microplate reader under 540 nm wavelength. According to the OD value, the cell growth inhibition rate was calculated.

For data set [2], the system named is MCF-7 cells (human breast cancer cells). Briefly: SRB cytotoxicity assay, MCF-7 cells. It counts as cell-based. The settings on record: SRB; for inhibition at 10 µM: MCF7, 10 μM, 72 h; for IC50: MCF7, 72 h, read-out: IC50 (μM) MCF-7. As to the method: as §1, §2
Data set [3] concerns HeLa cells (human cervical cancer cells). Briefly: SRB cytotoxicity assay, HeLa cells. In kind it is cell-based. As to conditions: 72 h, SRB; for IC50: read-out: IC50 (μM) HeLa. As to the method: as §1, §2
Data set [4] concerns HepG2 cells (human hepatocellular carcinoma cells). Briefly: SRB cytotoxicity assay, HepG2 cells. In kind it is cell-based. As to conditions: 72 h, SRB; for IC50: read-out: IC50 (μM) HepG2. How it is done: as §1, §2
The subject of data set [5] is HUVEC cells (human umbilical vein endothelial cells). Briefly: SRB cytotoxicity assay, HUVEC normal cells. It counts as cell-based. As to conditions: Homo sapiens, HUVEC, 72 h, 10 μM, SRB; toxicity to normal cells. How it is done:
as §1, §2

In data set [6] the test system is MCF-7 cells. Briefly: Flow cytometry for cell cycle analysis (PI). In kind it is cell-based, human. As to conditions: 3 μM, 48 h; for percentage of cells in G0/G1 phase: non-treated 61.36 ± 3.65%. As to the method:
For flow cytometric analysis of DNA content, MCF-7 cells in exponential growth were treated with compound for 48 h. The cells treated with compound were collected, washed twice with PBS, and then fixed with 75% alcohol overnight. Then, the cells were washed with PBS and resuspended in 100 μl of PBS, 200 mg/ml RNase was added for 30 min to eliminate the interference of RNA, and 20 ml/L propidium iodide (PI; Sigma) was added for 30 min. Then, the cells were washed, and the DNA content was detected by a flow cytometer (BD Accuri C6).

Data set [7] relates to MCF-7 cells. Briefly: Flow cytometry for cell apoptosis analysis (annexin V-FITC/PI). The settings on record: 48 h, non-treated 14.50 ± 0.68%. It counts as cell-based, human. As to the method: MCF-7 cells (5 × 10^5 cells/ml) were seeded in six-well plates and treated with compounds at different concentrations for 48 h. The cells were then harvested by trypsinization and washed twice with cold PBS. After centrifugation and removal of the supernatants, cells were resuspended in 400 μl of 1 × binding buffer, which was then added to 5 μl of annexin V-FITC and incubated at room temperature for 15 min. After adding 10 μl of PI, the cells were incubated at room temperature for another 15 min in the dark. The stained cells were analyzed by a flow cytometer (BD Accuri C6).

Data set [8] has as its system A549, MCF-7, HeLa and HepG2 cells. Briefly: SRB cytotoxicity assay, four tumor cell types taken together. In kind it is cell-based. The settings on record: Homo sapiens, 72 h, range over A549, MCF-7, HeLa, read-out: single concentration inhibition on the four tumor cells. As to the method:
as §1, with “HepG2 cells were cultured in minimum essential medium (Eagle) with 2 mM L-glutamine, Earle's BSS, 1.5 g/L sodium bicarbonate, 0.1 mM non-essential amino acids, 1.0 mM sodium pyruvate, and 10% fetal bovine serum. HUVEC cells were cultured in M199 medium containing 2 mM L-glutamine adjusted to contain 1.5 g/L sodium bicarbonate, 4.5 g/L glucose, 10 mM HEPES, 1.0 mM sodium pyruvate, ECGS, and 10% fetal bovine serum. All cells were cultured at 37°C in 5% CO2.” left out
The cell proliferation of adherent cells was determined by sulforhodamine B assay (SRB) (Quan et al., [2009]; Li et al., [2017]). […] OD values were measured for each well with a SPECTRA max 190 Cell microplate reader under 540 nm wavelength. According to the OD value, the cell growth inhibition rate was calculated.

Compound `CC(C)(C)c1cc2c(O)c(c1)Cc1cc(C(C)(C)C)cc(c1OCC(=O)NCCO)Cc1cc(C(C)(C)C)cc(c1O)Cc1cc(C(C)(C)C)cc(c1OCC(=O)NCCO)COC2` [Compound 4A, 7,13,19,25-tetra-tert-butyl-28,30-di-hydroxy-27,29-di-(N-(2-hydroxyethyl)-aminocarbonylmethoxyl)-2,3-dihomo-3-oxacalix[4]arene] registered a melting point of 139.7 to 142.3 °C. For the same compound, in data set [1], the inhibition at 10 µM came out at 100% and the IC50 was 2 ± 0.5 µM. For the same compound, in data set [2], the inhibition at 10 µM is 100% and the half-inhibitory concentration (IC50) worked out at 1 ± 0.1 µM. In addition, in data set [3], the inhibition at 10 µM is 100% and the concentration for half-maximal inhibition (IC50) came out at 0.8 ± 0.2 µM. Also, in data set [4], the inhibition at 10 µM is 86% and the half-inhibitory concentration (IC50) was determined as 2.7 ± 0.4 µM. This compound also displayed an inhibition at 10 µM in data set [5] of 41%. In the data set on MCF-7 cells [6] (non-treated 10.06 ± 0.91), the “percentage of cells in G2/M phase” value is given as 1.87 ± 2.45%. Further, the “percentage of cells in S phase” value with MCF-7 cells [6] (non-treated 24.69 ± 6.30%) worked out at 20.68 ± 13.12%. Moreover, the “percentage of cells in G0/G1 phase” value in the data set on MCF-7 cells [6] is 71.39 ± 11.21%. The compound further came in with an apoptotic rate in the data set on MCF-7 cells [7] (1 μM) of 19.63 ± 0.11%. Further, the apoptotic rate in the data set with MCF-7 cells [7] (3 μM) was found to be 15.40 ± 0.13%. The same compound came in with an apoptotic rate in the data set on MCF-7 cells [7] (10 μM) of 40.74 ± 0.38%. Moreover, in data set [8], the inhibition at 10 µM fell in the range of 86 to 100%.

`CC(C)(C)c1cc2c(O)c(c1)Cc1cc(C(C)(C)C)cc(c1OCC(=O)NCCCCCCN)Cc1cc(C(C)(C)C)cc(c1O)Cc1cc(C(C)(C)C)cc(c1OCC(=O)NCCCCCCN)COC2` [Compound 4D, 7,13,19,25-tetra-tert-butyl-28,30-di-hydroxy-27,29-di-(N-(6-aminohexyl)-aminocarbonylmethoxyl)-2,3-dihomo-3-oxa calix[4] arene]: the melting point lay within 123.3 to 125.9 °C. Moreover, in data set [1], the inhibition at 10 µM is 99% and the IC50 turned out to be 0.7 ± 0.1 µM. In data set [2], the inhibition at 10 µM was determined as 99% and the IC50 worked out at 1.8 ± 0.7 µM. Besides, in data set [3], the inhibition at 10 µM was found to be 100% and the half-inhibitory concentration (IC50) was 1.9 ± 0.1 µM. Further, in [4], the inhibition at 10 µM stood at 72% and the IC50 is 2.6 ± 0.2 µM. Besides, the inhibition at 10 µM in [5] turned out to be 90%. For the same compound, the “percentage of cells in G0/G1 phase” value in the data set with MCF-7 cells [6] turned out to be 73.56 ± 3.95%. The apoptotic rate with MCF-7 cells [7] (3 μM) is reported as 33.55 ± 0.78%. The apoptotic rate in the data set on MCF-7 cells [7] (10 μM) worked out at 61.15 ± 2.76%.

Regarding `CC(C)(C)c1cc2c(O)c(c1)Cc1cc(C(C)(C)C)cc(c1OCC(=O)NC1CCCC1)Cc1cc(C(C)(C)C)cc(c1O)Cc1cc(C(C)(C)C)cc(c1OCC(=O)NC1CCCC1)COC2` [Compound 4M, 7,13,19,25-tetra-tert-butyl-28,30-di-hydroxy-27,29-di-(N-clopentyl-aminocarbonylmethoxyl)-2,3-dihomo-3-oxacalix[4]arene], the melting point lay within 145.9 to 148.2 °C. Moreover, in data set [1], the inhibition at 10 µM was determined as 66% and the concentration for half-maximal inhibition (IC50) was determined as 10.1 ± 1.8 µM. In data set [2], this compound came in with an inhibition at 10 µM of 29%. The inhibition at 10 µM in data set [3] amounted to 52%. The inhibition at 10 µM in data set [4] was found to be 12%. In addition, in data set [5], the inhibition at 10 µM was 14%.

Compound `CC(C)(C)c1cc2c(O)c(c1)Cc1cc(C(C)(C)C)cc(c1OCC(=O)NCc1ccccc1)Cc1cc(C(C)(C)C)cc(c1O)Cc1cc(C(C)(C)C)cc(c1OCC(=O)NCc1ccccc1)COC2` [Compound 4N, 7,13,19,25-tetra-tert-butyl-28,30-di-hydroxy-27,29-di-(N-benzyl-aminocarbonylmethoxyl)-2,3-dihomo-3-oxacalix[4] arene] gave a melting point of 183.7 to 186.4 °C. In data set [1], the inhibition at 10 µM worked out at 64% and the IC50 amounted to 6.8 ± 0.5 µM. The inhibition at 10 µM in data set [2] is 43%. Further, the inhibition at 10 µM in [3] was 49%. The same compound returned an inhibition at 10 µM in data set [4] of 10%. Moreover, in data set [5], the inhibition at 10 µM stood at 21%.

The compound `CC(C)(C)c1cc2c(O)c(c1)Cc1cc(C(C)(C)C)cc(c1OCC(=O)NCCc1ccccc1)Cc1cc(C(C)(C)C)cc(c1O)Cc1cc(C(C)(C)C)cc(c1OCC(=O)NCCc1ccccc1)COC2` [Compound 4O, 7,13,19,25-tetra-tert-butyl-28,30-di-hydroxy-27,29-di-(N-phenethyl-aminocarbonylmethoxyl)-2,3-dihomo-3-oxacalix [4]arene] displayed a melting point of 114.6 to 115.9 °C. In [1], the inhibition at 10 µM was 63% and the IC50 stood at 12.6 ± 2 µM. In addition, in data set [2], the inhibition at 10 µM came to 45%. Moreover, in data set [3], the inhibition at 10 µM amounted to 60%. The compound further yielded an inhibition at 10 µM in data set [4] of 9%. Also, the inhibition at 10 µM in data set [5] is 35%.

`COc1ccc(CCNC(=O)COc2c3cc(C(C)(C)C)cc2Cc2cc(C(C)(C)C)cc(c2O)Cc2cc(C(C)(C)C)cc(c2OCC(=O)NCCc2ccc(OC)c(OC)c2)Cc2cc(C(C)(C)C)cc(c2O)COC3)cc1OC` [Compound 4P, 7,13,19,25-tetra-tert-butyl-28,30-di-hydroxy-27,29-di-(N-(3,4-dimethoxyphenethyl)-aminocarbonylmethoxyl)-2,3-dihomo-3-oxacalix [4]arene] came in with a melting point of 117.4 to 120.1 °C. For the same compound, in data set [1], the inhibition at 10 µM stood at 22%. This compound had an inhibition at 10 µM in data set [2] of 0%. In data set [3], this compound registered an inhibition at 10 µM of 37%. Also, in [4], the inhibition at 10 µM was 11%. The inhibition at 10 µM in data set [5] was determined as 0%.
